Consider 13 compounds from patent US20250195524A1, “PYRIMIDO-PYRIDAZINONE COMPOUND AS TOLL-LIKE RECEPTOR AGONIST” (SHANGHAI VISONPHARMA CO., LTD., priority 2022, published 2025).

One experiment has as its target T1, human TLR7 (Homo sapiens, UniProt Q9NYK1).
T1 construct: host or cells: HEK-Blue hTLR7 (HEK293-derived reporter cells)
T1 sequence (Q9NYK1 27-1049): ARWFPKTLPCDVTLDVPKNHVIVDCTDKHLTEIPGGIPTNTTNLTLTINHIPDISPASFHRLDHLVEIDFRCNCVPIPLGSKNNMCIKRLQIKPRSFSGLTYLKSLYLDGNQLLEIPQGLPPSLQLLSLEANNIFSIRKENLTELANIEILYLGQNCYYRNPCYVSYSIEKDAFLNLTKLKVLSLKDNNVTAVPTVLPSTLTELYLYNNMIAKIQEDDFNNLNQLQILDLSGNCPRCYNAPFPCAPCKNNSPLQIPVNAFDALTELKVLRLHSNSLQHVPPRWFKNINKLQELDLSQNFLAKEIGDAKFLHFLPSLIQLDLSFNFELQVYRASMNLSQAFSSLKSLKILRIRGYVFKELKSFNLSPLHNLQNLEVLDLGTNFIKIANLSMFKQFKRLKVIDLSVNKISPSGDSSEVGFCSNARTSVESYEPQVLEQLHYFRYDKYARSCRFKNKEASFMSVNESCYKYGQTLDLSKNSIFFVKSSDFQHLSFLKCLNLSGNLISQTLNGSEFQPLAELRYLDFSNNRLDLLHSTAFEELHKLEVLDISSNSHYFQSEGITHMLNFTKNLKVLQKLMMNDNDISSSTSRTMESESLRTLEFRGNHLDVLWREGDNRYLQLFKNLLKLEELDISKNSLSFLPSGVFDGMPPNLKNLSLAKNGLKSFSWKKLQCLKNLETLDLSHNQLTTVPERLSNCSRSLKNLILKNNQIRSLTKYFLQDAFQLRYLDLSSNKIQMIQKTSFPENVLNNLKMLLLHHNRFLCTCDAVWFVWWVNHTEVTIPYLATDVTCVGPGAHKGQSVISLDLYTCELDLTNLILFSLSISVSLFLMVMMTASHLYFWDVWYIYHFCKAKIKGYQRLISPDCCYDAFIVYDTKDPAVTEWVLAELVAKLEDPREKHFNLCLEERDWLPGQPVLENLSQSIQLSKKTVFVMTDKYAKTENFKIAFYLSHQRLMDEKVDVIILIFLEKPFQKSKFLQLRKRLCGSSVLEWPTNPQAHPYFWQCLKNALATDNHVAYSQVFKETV
The experiment in a line: HEK-Blue hTLR7 SEAP reporter gene agonism assay. Particulars: HEK-Blue hTLR7 cells, SEAP (Quanti-blue, 650 nm), 16-22 hours incubation. Format: cell-based. How it is done:
(§1) The agonistic activity of the compounds of the present invention on TLR7 or TLR8 was evaluated using HEK-Blue™ cells stably expressing human TLR7 or TLR8. And the agonistic activity was assayed using their ability to induce the SEAP reporter gene under the control of the IFN-β minimal promoter fused to five NF-κB and ap-1 binding sites, specifically as follows:
(§2) HEK-Blue™ hTLR7 (Invivogen, 80,000 cells per well) or HEK-Blue™ hTLR8 (Invivogen, 60,000 cells per well) was added to a 96-well cell culture plate, the compound to be tested is added whereafter, and the final concentration of the compound(s) to be tested in the medium ranged from 0.001 to 36 μM, then incubated for 16-22 hours. SEAP levels in the cell culture medium were detected using HEK-Blue assay reagent Quanti-blue (Invivogen) according to the manufacturer's instructions. Neo2 Multifunctional Enzyme Labeler (Bio-tek) was used to determine the light absorption at 650 nm. GraphPad Prism was utilized to calculate the EC50, which is the half effective concentration of the drug.
On the technique in general: In a reporter assay the amount or activity of a reporter protein is the signal.

The target of another experiment is T2, human TLR8 (Homo sapiens, UniProt Q9NR97).
T2 construct: host or cells: HEK-Blue hTLR8 (HEK293-derived reporter cells)
T2 sequence (Q9NR97 27-1041): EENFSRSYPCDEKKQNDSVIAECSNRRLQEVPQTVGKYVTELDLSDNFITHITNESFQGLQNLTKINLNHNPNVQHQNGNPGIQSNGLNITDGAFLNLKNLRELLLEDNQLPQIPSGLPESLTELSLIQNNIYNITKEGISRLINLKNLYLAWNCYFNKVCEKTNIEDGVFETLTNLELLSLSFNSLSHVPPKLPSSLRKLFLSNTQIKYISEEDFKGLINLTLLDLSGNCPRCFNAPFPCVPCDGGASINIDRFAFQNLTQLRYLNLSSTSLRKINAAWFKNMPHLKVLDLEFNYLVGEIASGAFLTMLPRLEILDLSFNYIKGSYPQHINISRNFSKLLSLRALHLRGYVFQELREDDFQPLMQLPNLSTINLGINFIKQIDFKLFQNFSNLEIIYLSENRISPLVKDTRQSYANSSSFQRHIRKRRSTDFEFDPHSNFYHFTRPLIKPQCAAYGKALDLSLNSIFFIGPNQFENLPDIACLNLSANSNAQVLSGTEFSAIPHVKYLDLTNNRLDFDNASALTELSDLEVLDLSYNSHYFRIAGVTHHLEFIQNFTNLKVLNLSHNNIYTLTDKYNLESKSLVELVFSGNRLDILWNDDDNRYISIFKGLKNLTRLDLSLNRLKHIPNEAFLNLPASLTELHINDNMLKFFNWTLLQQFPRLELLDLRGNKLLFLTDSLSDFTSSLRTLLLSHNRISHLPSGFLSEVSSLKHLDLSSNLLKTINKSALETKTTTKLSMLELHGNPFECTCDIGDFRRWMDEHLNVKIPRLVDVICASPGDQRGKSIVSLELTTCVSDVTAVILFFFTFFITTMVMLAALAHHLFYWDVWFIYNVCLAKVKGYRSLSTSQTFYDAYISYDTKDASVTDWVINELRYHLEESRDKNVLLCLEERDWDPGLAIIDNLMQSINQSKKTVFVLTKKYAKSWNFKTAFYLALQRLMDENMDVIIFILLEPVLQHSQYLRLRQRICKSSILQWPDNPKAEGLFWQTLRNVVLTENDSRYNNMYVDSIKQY
The experiment in a line: HEK-Blue hTLR8 SEAP reporter gene agonism assay. Format: cell-based. The following applies: HEK-Blue hTLR8 cells, SEAP (Quanti-blue, 650 nm), 16-22 hours incubation. The protocol:
as §1, §2

Regarding `CCCCNc1nc(N)nc2cnn(Cc3ccc(OCCNC)cc3)c(=O)c12` [Compound I-19, 2-amino-4-(butylamino)-6-(4-(2-(methylamino)ethoxy)benzyl)pyrimido[4,5-d]pyridazin-5(6H)-one], the half-maximal effective concentration (EC50) was found to be 922 nM at human TLR7 and 149 nM at human TLR8.

Regarding `CCC[C@@H](C)Nc1nc(N)nc2cnn(Cc3ccc(C(=O)N4CCNCC4)cc3OC)c(=O)c12` [Compound I-24, (R)-2-amino-6-(2-methoxy-4-(piperazine-1-carbonyl)benzyl)-4-(pentan-2-ylamino)pyrimido[4,5-d]pyridazin-5(6H)-one], the values for the EC50 at human TLR7 and at human TLR8 were 634 nM and 194 nM, respectively.

For `CCC[C@@H](C)Nc1nc(N)nc2cnn(Cc3ccc(CN4CCCC4)cc3OC)c(=O)c12` [Compound I-25, (R)-2-amino-6-(2-methoxy-4-(pyrrolidin-1-ylmethyl)benzyl)-4-(pentan-2-ylamino)pyrimido[4,5-d]pyridazin-5(6H)-one], the 50% effective concentration (EC50) on human TLR7 came out at 631 nM; at human TLR8, 147 nM.

As for `CCC[C@@H](C)Nc1nc(N)nc2cnn(Cc3ccc(OCCNC)cc3)c(=O)c12` [Compound I-39, (R)-2-amino-6-(4-(2-(methylamino)ethoxy)benzyl)-4-(pentan-2-ylamino)pyrimido[4,5-d]pyridazin-5(6H)-one], the EC50 came out at 641 nM at human TLR7 and 181 nM at human TLR8.

As for `CCC[C@@H](C)Nc1nc(N)nc2cnn(Cc3ccc(CN4CCCC4)cc3)c(=O)c12` [Compound I-40, (R)-2-amino-4-(pentan-2-ylamino)-6-(4-(pyrrolidin-1-ylmethyl)benzyl)pyrimido[4,5-d]pyridazin-5(6H)-one], the results for the EC50 on human TLR7 and at human TLR8 were 900 nM and 83 nM, respectively.

For `CCC[C@@H](C)Nc1nc(N)nc2cnn(Cc3ccc(OCCNC)nc3)c(=O)c12` [Compound I-47, (R)-2-amino-6-((6-(2-(methylamino)ethoxy)pyridin-3-yl)methyl)-4-(pentan-2-ylamino)pyrimido[4,5-d]pyridazin-5(6H)-one], the EC50 on human TLR7 is 357 nM; at human TLR8, 70 nM.

For `CCC[C@@H](C)Nc1nc(N)nc2cnn(Cc3ccc(CN4CCN(C)CC4)cc3)c(=O)c12` [Compound I-48, (R)-2-amino-6-(4-((4-methylpiperazin-1-yl)methyl)benzyl)-4-(pentan-2-ylamino)pyrimido[4,5-d]pyridazin-5(6H)-one], the EC50 at human TLR7 was found to be 921 nM; on human TLR8, 203 nM.

Turning to `CCC[C@@H](C)Nc1nc(N)nc2cnn(Cc3ccc(CN(C)CCO)cc3)c(=O)c12` [Compound I-49], the EC50 at human TLR7 came out at 964 nM; on human TLR8, 73 nM.

For `CCC[C@@H](C)Nc1nc(N)nc2cnn(Cc3ccc(CN4CCNCC4)cc3)c(=O)c12` [Compound I-50, (R)-2-amino-4-(pentan-2-ylamino)-6-(4-(piperazin-1-ylmethyl)benzyl)pyrimido[4,5-d]pyridazin-5(6H)-one], the EC50 on human TLR7 was 770 nM; on human TLR8 it was 157 nM.

Regarding `CCCN[C@H](C)c1ccc(Cn2ncc3nc(N)nc(N[C@H](C)CCC)c3c2=O)cc1` [Compound I-51, 2-amino-4-(((R)-pentan-2-yl)amino)-6-(4-((R)-1-(propylamino)ethyl)benzyl)pyrimido[4,5-d]pyridazine-5(6H)-one], the 50% effective concentration (EC50) was 892 nM at human TLR7 and 141 nM on human TLR8.

In the case of `CCCN[C@@H](C)c1ccc(Cn2ncc3nc(N)nc(N[C@H](C)CCC)c3c2=O)cc1` [Compound I-52, 2-amino-4-(((R)-pentan-2-yl)amino)-6-(4-((S)-1-(propylamino)ethyl)benzyl)pyrimido[4,5-d]pyridazine-5(6H)-one], the EC50 is 785 nM at human TLR7 and 125 nM on human TLR8.

`CCC[C@@H](C)Nc1nc(N)nc2cnn(Cc3ccc(OCCNC)nc3OC)c(=O)c12` [Compound I-53, (R)-2-amino-6-((2-methoxy-6-(2-(methylamino)ethoxy)pyridin-3-yl)methyl)-4-(pentan-2-ylamino)pyrimido[4,5-d]pyridazin-5(6H)-one]: the concentration giving a half-maximal response (EC50) was 597 nM on human TLR7 and 175 nM at human TLR8.

Regarding `CCC[C@@H](C)Nc1nc(N)nc2cnn(Cc3ccc(C4CCN(C)CC4)cc3)c(=O)c12` [Compound I-57, (R)-2-amino-6-(4-(1-methylpiperidin-4-yl)benzyl)-4-(pentan-2-ylamino)pyrimido[4,5-d]pyridazin-5(6H)-one], the figures for the EC50 at human TLR7 and on human TLR8 were 407 nM and 107 nM, respectively.

What is called EC50 is the concentration giving half of the maximal effect. A high value points to a less potent agent.
